Where two headings read alike, the source gives them in different places.

The test system of series [1] is Naegleria fowleri ATCC 30808 trophozoites. Put plainly: In vitro amoebicidal activity, alamarBlue colorimetric assay, trophozoites. The settings on record: for IC50: Naegleria fowleri; for SI (CC50/IC50): CC50 J774A.1 / IC50 N. fowleri ATCC 30808. Here is the method:
(§1) Amoebae were grown at 37 °C in axenic conditions in 2% (w/v) bactocasitone medium (Thermo Fisher Scientific, Madrid, Spain) supplemented with 10% (v/v) foetal bovine serum (FBS), […] of penicillin G and 0,5 mg/mL of streptomycin sulphate (Sigma-Aldrich, Madrid, Spain). As required by the Spanish Government biosafety guidelines for this pathogen, amoebic strains were cultured in a biological security facility level 3 at the Instituto Universitario de Enfermedades Tropicales y Salud Pública de Canarias, Universidad de La Laguna.
(§2) The in vitro activity of the four ICZs included in this study was evaluated against trophozoites of two Naegleria fowleri type strains using a colorimetric assay. Amoebae (2 × 10^5 cells/mL) were placed in a sterile 96-well microtiter plate. Next, 50 μL of a serial dilution of each of the ICZs (in N. fowleri culture medium) was added to the plate. In all the activity assays, 2% DMSO was used to dissolve the highest dose of the molecules to prevent generation of any effects in the amoebic cells. Negative controls were also included in the assays, consisting of the addition of medium alone to the seeded trophozoites as previously described. Miltefosine and amphotericin B were used as positive controls whereas the addition of medium alone to the seeded trophozoites was considered as the negative control. Lastly, 10% of the alamarBlue® reagent was placed in each well, and plates were incubated with slight agitation for 48 h at 37 °C. After that, activity plates were evaluated with an EnSpire® Multimode Plate Reader (Perkin Elmer, Madrid, Spain) using a wavelength of 570 nm and a reference wavelength of 630 nm.
(§3) The IC90 values of the compounds were calculated using a GraphPad calculator (GraphPad Software, San Diego, CA, USA) based on the calculated IC50 and the Hill Slope (H). All experiments were performed in triplicate, and the mean values were also calculated.

Series [2] in a line: Cytotoxicity assay, alamarBlue. The series is classed as cell-based. The settings on record: mouse, 37 °C, mean ± SD, read-out: Murine Macrophage J774.A1 CC50. Here is the method:
(§4) Evaluation of in vitro toxicity was carried out using the murine macrophage J774A.1 cell line (ATCC # TIB-67, LG Promochem, Barcelona, Spain) which was routinely cultured in Dulbecco’s Modified Eagle’s medium (DMEM, w/v) supplemented with 10% (v/v) FBS and 10 µg/mL of gentamicin (Sigma–Aldrich, Madrid, Spain), at 37 °C in a 5% CO2 atmosphere as previously described.
(§5) Cytotoxicity of the compounds was evaluated using toxicity assays established in our laboratory based on the evaluation of the toxicity induced in a murine macrophages J774.A1 cell line (ATCC® TIB-67™). Concisely, different concentrations of the ICZs were incubated with the cell line, and alamarBlue® reagent (10% of medium volume) was placed in each well and incubated for 24 h, at 37 °C under 5% CO2 conditions. Results were examined as described in Section 2.4.1.

Series [3] has as its system Naegleria fowleri ATCC 30215 trophozoites. The experiment in a line: In vitro amoebicidal activity, alamarBlue colorimetric assay, trophozoites. The series is classed as cell-based. The settings on record: for IC50: ATCC30215, trophozoites, 48 h, 37 °C, mean ± SD, read-out: N. fowleri ATCC 30215 IC50. Here is the method: as §1, §2, §3
The subject of series [4] is murine macrophage J774A.1 cell line. The experiment in a line: Cytotoxicity assay, alamarBlue. The series is classed as cell-based. The settings on record: 24 h, 37 °C, mean ± SD; read-out: Murine Macrophage J774.A1 CC50. How it is done: as §4, §5
The test system of series [5] is Naegleria fowleri trophozoites. Put plainly: Detection of DNA/chromatin condensation, Hoechst 33342/propidium iodide double stain. It counts as cell-based. The settings on record: IC90, 24 h; similar for both strains. From the text: The double-stain apoptosis detection kit constituted by Hoechst 33342 and propidium iodide (PI) (Life Technologies, Madrid. Spain) and an EVOS FL Cell Imaging System AMF4300 (Life Technologies, Madrid, Spain) were used in these experiments as per the manufacturer’s instructions. […] The assay is able to separate three groups of cell populations: dead cells which show an intense red and low-blue fluorescence; healthy cells showing a low level of fluorescence, and cells in PCD presenting intense blue fluorescence (condensed chromatin/DNA).

Series [6] deals with Naegleria fowleri trophozoites. The experiment in a line: Cellular membrane damage, SYTOX Green assay. The series is classed as cell-based. Conditions: IC90, 24 h; both strains. How it is done:
The SYTOX Green assay (Life Technologies, Madrid, Spain) allows the detection of alterations in the permeability of the cell membrane. The SYTOX Green dye binds to DNA, showing intense green fluorescence, only if the plasmatic membrane is damaged and allows it to enter the cytoplasm. […] After 24 h, 1 μM SYTOX Green (final concentration) was added to the cell culture and incubated for 15 min. Next, cells were examined in an EVOS FL Cell Imaging System AMF4300 (Life Technologies, Madrid, Spain).

Series [7] relates to Naegleria fowleri trophozoites. Put plainly: Mitochondrial membrane potential, JC-1 assay. The series is classed as cell-based. The settings on record: IC90, 24 h; similar for both strains. How it is done:
The evaluation of mitochondrial function disruption in STS-treated amoebae was carried out using the Celltiter-Glo® Luminescent Cell Viability Assay (Promega Biotech Ibérica, Madrid, Spain) and the JC-1 Mitochondrial Membrane Potential Detection Kit (Cayman Chemicals, Vitro SA, Madrid, Spain). The first kit detects the levels of ATP in STS-treated cells in comparison to non-treated cells.
Images were captured using an EVOS FL Cell Imaging System AMF4300 (Life Technologies, Madrid, Spain). The obtained staining pattern permitted the identification of two groups in a cellular population: live cells which would show only red fluorescence and cells presenting low mitochondrial membrane potential (undergoing PCD) which would show an intense level of green and red fluorescence.

The subject of series [8] is Naegleria fowleri trophozoites. Put plainly: Intracellular ROS generation, CellROX Deep Red assay. The series is classed as cell-based. Conditions: IC90, 24 h; similar for both strains. Here is the method:
Next, cells were exposed to 5 μM CellROX Deep Red for 30 min at 37 °C in the dark and observed after using the EVOS FL Cell Imaging System AMF4300 (Life Technologies, Madrid, Spain). The presence of intracellular ROS was shown by the detection of high red fluorescence in the cells.

[9] abbreviates: ATCC30808, 48 h, read-out: N. fowleri ATCC 30808 IC50.

Regarding `O=C1NCc2c1c1c3ccccc3[nH]c1c1[nH]c3ccccc3c21` [K252c (8), K252c], the “Activity against N. fowleri, in words” value in series [1] is given as “no activity was observed”. Moreover, the IC50 in series [1] (setting [9]) is above 20000 nM.

As to `CO[C@@H]1C(=O)C[C@H]2O[C@]1(C)n1c3ccccc3c3c4c(c5c6ccccc6n2c5c31)C(=O)NC4` [4′D4′OSTS (3), 4′-demethylamino-4′-oxostaurosporine], in series [1], the “Activity against N. fowleri, in words” value is reported as “only active against the N. fowleri ATCC 30808 strain” and the “SI (CC50/IC50)” value is reported as above 1.9. Moreover, the half-maximal inhibitory concentration (IC50) in series [1] (setting [9]) amounted to 10800 ± 2920 nM. For the same compound, the CC50 at 24 h in series [2] (J774A.1 macrophage cell line) was above 20000 nM.

For the compound `CN[C@@H]1C[C@H]2O[C@@](C)([C@@H]1OC)n1c3ccccc3c3c4c(c5c6ccccc6n2c5c31)C(=O)NC4=O` [7OSTS (2), 7-oxostaurosporine], the IC50 in series [3] is 1070 ± 230 nM; in series [1] (setting [9]) it was 1280 ± 350 nM. For the same compound, the “SI (CC50/IC50)” value in series [1] was found to be 4.1. Further, the CC50 in series [4] came out at 5200 ± 1750 nM.

Turning to `COC(=O)C1(O)CC2OC1(C)n1c3ccccc3c3c4c(c5c6ccccc6n2c5c31)C(=O)NC4` (centres unmarked) [K252a (6), K252a], the IC50 was found to be 120 ± 30 nM in series [3]; 340 ± 90 nM in series [1] (setting [9]); 338 ± 90 nM in series [1] (ATCC30808, read-out: Activity (IC50) N. fowleri ATCC 30808, text). Moreover, in series [1], the “SI (CC50/IC50)” value was 3.2. For the same compound, the half-maximal cytotoxic concentration (CC50) at 24 h in series [2] came out at 1070 ± 210 nM.

For `COC1=C(C)O[C@@H]2C[C@@]1(OC)n1c3ccccc3c3c4c(c5c6ccccc6n2c5c31)C(=O)NC4` [SCZ B (4), streptocarbazole B], in series [1], the “Activity against N. fowleri, in words” value is on record as “only active against the N. fowleri ATCC 30808 strain” and the “SI (CC50/IC50)” value is recorded as above 1.7. The IC50 in series [1] (setting [9]) is 11500 ± 310 nM. Further, in series [2] (J774A.1 macrophage cell line), the CC50 at 24 h was above 20000 nM.

With `O=C1NC(=O)c2c1c1c3ccccc3[nH]c1c1[nH]c3ccccc3c21` [Arcyriflavin A (9), arcyriaflavin A], in series [1], the “Activity against N. fowleri, in words” value is given as “no activity was observed”. For the same compound, the IC50 in series [1] (setting [9]) was above 20000 nM.

On to `CC12OC(CC1(O)C(=O)O)n1c3ccccc3c3c4c(c5c6ccccc6n2c5c31)CNC4=O` (centres unmarked) [K252b (7), K252b], for which the IC50 in series [1] (setting [9]) is above 20000 nM.

For `CN[C@@H]1C[C@H]2O[C@@](C)([C@@H]1OC)n1c3ccccc3c3c4c(c5c6ccccc6n2c5c31)C(=O)NC4` [STS (1), staurosporine], the IC90 in series [3] (ATCC30215, calculated from IC50 and Hill slope, table footnote, unit inferred, read-out: IC90 N. fowleri ATCC 30215) is 970 nM. For the same compound, in series [5], the “Chromatin condensation (Hoechst stain)” value is on record as “the nuclei are intense blue”. The “Plasmatic membrane permeabilization (SYTOX Green)” value in series [6] was “caused plasmatic membrane permeabilization in both strains”. In series [7], the “Mitochondrial membrane potential (JC-1)” value was “Mitochondrial potential collapse was observed”. Further, the “Intracellular ROS (CellROX Deep Red)” value in series [8] is “Increased levels of intracellular ROS”.

On to `C[C@@H]1[C@H](O)[C@@H](C)/C=C/C=C/C=C/C=C/C=C/C=C/C=C/[C@H](O[C@@H]2O[C@H](C)[C@@H](O)[C@H](N)[C@@H]2O)C[C@@H]2O[C@](O)(C[C@@H](O)C[C@@H](O)[C@H](O)CC[C@@H](O)C[C@@H](O)CC(=O)O[C@H]1C)C[C@H](O)[C@H]2C(=O)O` [Amphotericin B], for which the figures for the IC50 in series [3] and in series [1] (setting [9]) were 160 ± 20 nM and 120 ± 30 nM, respectively. Besides, in series [1], the “SI (CC50/IC50)” value was at least 1666.7. In addition, the half-maximal cytotoxic concentration (CC50) at 24 h in series [2] (J774A.1 macrophage cell line) is at least 200000 nM.

For `CO[C@H]1[C@H](O)[C@@H](O)[C@H](n2c3c(Cl)cccc3c3c4c(c5c6cccc(Cl)c6[nH]c5c32)C(=O)NC4=O)O[C@@H]1CO` [Rebeccamycin (5), rebeccamycin], the “Activity against N. fowleri, in words” value in series [1] is “not active”. Moreover, in series [1] (setting [9]), the IC50 was above 20000 nM.

Turning to `CCCCCCCCCCCCCCCCOP(=O)([O-])OCC[N+](C)(C)C` [Miltefosine, miltefosine], the “SI (CC50/IC50)” value in series [1] is listed as 3.3. Also, in series [2] (J774A.1 macrophage cell line), the 50% cytotoxic concentration (CC50) at 24 h was determined as 128000 ± 8850 nM.

Values taken from publication PMC7285321, “Evaluation of Indolocarbazoles from Streptomyces sanyensis as a Novel Source of Therapeutic Agents against the Brain-Eating Amoeba Naegleria fowleri” (Microorganisms, 2020).
